Source: patent US7816558B2, “Triarylcarboxylic acid derivative” (Astellas Pharma Inc., priority 2005, dated 2010)

Tested on: serum uric acid level
Assay: Hypouricemic effect (rat oxonate-induced high uric acid model), test (A)
Type: in vivo
Conditions: Wistar rats, potassium oxonate 250 mg/kg s.c., 2 hours after oral administration, normal group 100% inhibition, control group 0%
Method: (A) For evaluating the serum uric acid level depressing capability of the compounds of the present invention, the following test was carried out using an oxonate-induced high uric acid model.
A 0.5% methyl cellulose liquid (normal group, control group) or a test compound suspended in 0.5% methyl cellulose (compound-administered group) was orally administered to 5 or 6-week-age male Wistar rats. One hour before blood collection, saline (normal group), or 250 mg/kg of potassium oxonate suspended in saline (control group, compound-administered group) was subcutaneously administered to the rats. 2 hours or 18 hours after the compound or methyl cellulose liquid administration, the blood was collected from each rat. The serum was separated from the collected blood, and the serum uric acid level was measured according to a phosphorus tungstate method (Am. J. Clin. Pathol., 28, 152-, 1957).
This test confirmed the excellent hypouricemic effect of the compounds of the present invention. For example, ED50 of the compound of Example 136 was 0.2 mg/kg in 2 hours after oral administration (for this, the serum uric acid level of the normal group was defined as 100% inhibition and the serum uric acid level of the control group was as 0% inhibition).

Compound	ED50
N#Cc1cc(-c2cc(C(=O)[O-])ccn2)ccc1-c1ccccc1.[Na+] [Example 1, sodium 2-(2-cyanobiphenyl-4-yl)isonicotinate]	< 1 mg/kg
N#Cc1cc(-c2ccc(C(=O)O)s2)ccc1-c1ccccc1 [Example 68, 5-(2-cyanobiphenyl-4-yl)thiophene-2-carboxylic acid]	< 1 mg/kg
Cc1nc(-c2ccc(-c3ccccc3)c(C#N)c2)sc1C(=O)O [Example 123, 2-(2-cyanobiphenyl-4-yl)-4-methyl-1,3-thiazole-5-carboxylic acid]	< 1 mg/kg
Cc1ccc(-c2ccc(-c3nc(C)c(C(=O)O)s3)cc2C#N)cc1 [Example 124, 2-(2-cyano-4′-methylbiphenyl-4-yl)-4-methyl-1,3-thiazole-5-carboxylic acid]	< 1 mg/kg
COc1ccc(-c2ccc(-c3nc(C)c(C(=O)O)s3)cc2C#N)cc1 [Example 127, 2-(2-cyano-4′-methoxybiphenyl-4-yl)-4-methyl-1,3-thiazole-5-carboxylic acid]	< 1 mg/kg
N#Cc1cc(-c2ncc(C(=O)O)s2)ccc1-c1ccccc1 [Example 136, 2-(2-cyanobiphenyl-4-yl)-1,3-thiazole-5-carboxylic acid]	0.2 mg/kg
N#Cc1cc(-n2cc(C(=O)O)cn2)ccc1-c1ccccc1 [Example 137, 1-(2-cyanobiphenyl-4-yl)-1H-pyrazole-4-carboxylic acid]	< 1 mg/kg
COc1ccc(-c2ccc(-n3cc(C(=O)O)cn3)cc2C#N)cc1 [Example 140, 1-(2-cyano-4′-methoxybiphenyl-4-yl)-1H-pyrazole-4-carboxylic acid]	< 1 mg/kg
Cn1nc(-c2ccc(-c3ccccc3)c(C#N)c2)cc1C(=O)O [Example 146, 3-(2-cyanobiphenyl-4-yl)-1-methyl-1H-pyrazole-5-carboxylic acid]	< 1 mg/kg

Target: T1, xanthine oxidase (derived from butter milk, by Sigma) (Bos taurus, UniProt P80457)
T1 construct: xanthine oxidase (derived from butter milk, by Sigma); purchased Sigma; host or cells: butter milk (natural source)
Assay: Xanthine oxidase inhibiting activity
Type: biochemical
Conditions: pterin 5 μM as substrate, isoxanthopterin light emission, room temperature; read-out: IC50 (concentration of the test compound for 50% inhibition)
Method: A test compound was dissolved in DMSO (by Nacalai) to have a concentration of 10 mM, and then just before use, its concentration was adjusted to a desired one.
The xanthine oxidase inhibitory activity of the compound of the present invention was evaluated according to a partly modified method of a method described in a reference “Free Radic. Biol. Med. 6, 607-615, 1992”. Concretely, xanthine oxidase (derived from butter milk, by Sigma) was mixed with 50 mM phosphate buffer to be 0.03 units/ml, and applied to a 96-well plate in an amount of […]. The test compound diluted to have a final concentration was added to the plate in an amount of 2 μl/well, and processed at room temperature for 20 minutes. Pterin (by Sigma) was added to it to have a final concentration of 5 μM in an amount of 50 μl/well, and reacted at room temperature for 10 minutes. Under a condition of excitation at 345 nm and emission at […] (pterin is oxidized by xanthine oxidase to give isoxanthopterin, and under the condition it emits light), the sample was analyzed using a microplate reader sapphire (by Tacan).
The light emission by isoxanthopterin in the presence or absence of xanthine oxidase was defined as 0% inhibition and 100% inhibition, respectively, and the concentration (IC50) of the test compound for 50% inhibition was computed.

T1 sequence (P80457 whole entry): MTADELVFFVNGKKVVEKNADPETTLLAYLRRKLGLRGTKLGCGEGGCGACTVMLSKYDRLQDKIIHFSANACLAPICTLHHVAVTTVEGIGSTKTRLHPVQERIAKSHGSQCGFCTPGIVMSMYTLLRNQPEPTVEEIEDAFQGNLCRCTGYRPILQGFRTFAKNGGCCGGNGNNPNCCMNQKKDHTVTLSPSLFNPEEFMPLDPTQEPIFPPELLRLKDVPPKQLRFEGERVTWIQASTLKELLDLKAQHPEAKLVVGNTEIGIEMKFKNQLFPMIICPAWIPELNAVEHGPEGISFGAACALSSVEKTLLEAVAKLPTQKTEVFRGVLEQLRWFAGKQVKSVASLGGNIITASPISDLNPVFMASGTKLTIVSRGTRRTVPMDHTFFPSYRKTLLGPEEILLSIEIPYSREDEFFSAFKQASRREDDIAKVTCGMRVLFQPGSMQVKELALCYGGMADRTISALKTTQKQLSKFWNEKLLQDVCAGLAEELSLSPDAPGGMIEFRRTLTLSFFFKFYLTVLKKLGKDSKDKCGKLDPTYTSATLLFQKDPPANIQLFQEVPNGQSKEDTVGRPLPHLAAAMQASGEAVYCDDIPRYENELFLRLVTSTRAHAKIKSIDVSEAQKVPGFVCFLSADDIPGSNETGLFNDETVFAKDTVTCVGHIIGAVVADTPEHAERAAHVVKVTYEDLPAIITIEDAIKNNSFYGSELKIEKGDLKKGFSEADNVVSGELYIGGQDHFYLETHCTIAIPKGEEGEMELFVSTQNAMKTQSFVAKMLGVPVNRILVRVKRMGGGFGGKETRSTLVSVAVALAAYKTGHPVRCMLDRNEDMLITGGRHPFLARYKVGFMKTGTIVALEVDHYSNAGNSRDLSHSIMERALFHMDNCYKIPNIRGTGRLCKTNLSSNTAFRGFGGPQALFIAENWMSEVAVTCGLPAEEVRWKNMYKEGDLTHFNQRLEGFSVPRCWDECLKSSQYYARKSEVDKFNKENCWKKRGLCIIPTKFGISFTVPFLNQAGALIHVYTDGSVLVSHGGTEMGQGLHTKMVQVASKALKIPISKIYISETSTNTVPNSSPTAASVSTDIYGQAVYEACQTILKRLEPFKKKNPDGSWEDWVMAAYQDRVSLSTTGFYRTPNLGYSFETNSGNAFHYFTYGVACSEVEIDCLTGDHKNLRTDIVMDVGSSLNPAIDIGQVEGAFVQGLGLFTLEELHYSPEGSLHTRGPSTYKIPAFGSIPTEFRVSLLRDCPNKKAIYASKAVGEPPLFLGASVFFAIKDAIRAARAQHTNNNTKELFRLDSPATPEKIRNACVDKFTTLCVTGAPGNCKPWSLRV

IC50	Compound
0.5 nM	CC(C)(C)c1ccc(-c2ccc(-c3ccc(C(=O)O)s3)cc2C#N)cc1 [Example 94]
0.9 nM	Cc1cccc(-c2ccc(-c3nc(C)c(C(=O)O)s3)cc2C#N)c1 [Example 129, 2-(2-cyano-3′-methylbiphenyl-4-yl)-4-methyl-1,3-thiazole-5-carboxylic acid]
1.4 nM	COc1ccc(-c2ccc(-n3cc(C(=O)O)cn3)cc2C#N)cc1 [Example 140, 1-(2-cyano-4′-methoxybiphenyl-4-yl)-1H-pyrazole-4-carboxylic acid]
